Experimental data from patent US11512090B2, “Muscarinic acetylcholine M1 receptor antagonists” (PIPELINE THERAPEUTICS, INC., priority 2018, dated 2022).
Like-named read-outs stand apart in the source and are kept apart here.

What was measured:
Assay type in all cases: cell-based
[1] = biological target: M3 (Homo sapiens, UniProt P20309); assay: In vitro functional assay of muscarinic acetylcholine receptor activity, M3; details: antagonist IC50 at M3; read-out: M3 IC50
Description: [The procedure below names another target; the source lists this target under the same test.] (§1) CHO-K1 cells stably expressing human M1 receptor with Aequorin (Perkin Elmer) were grown in F12 media, 10% FBS with 0.4 mg/mL geneticin and […]. Cells were grown to confluence and frozen down to be assayed at a later date. On the day of the experiment cells were thawed in a 37° C. water bath, resuspended in DMEM/HAM's F12 with HEPES (Invitrogen)+0.1% protease-free BSA (assay buffer), and spun down to remove freezing media. After centrifugation, supernatant was removed and 12 mL of assay buffer was added. Coelenterazine h (Promega) was added to the cells at a final concentration of 5 uM and incubated for 4 hours at room temperature in the dark. Compound master plate-96 deep well (Corning) were formatted in a 8-point DRC in assay buffer with 0.2% DMSO at a starting concentration of 60 uM (2×). After 4 hours of incubation, cells were plated at a concentration of 5×10^5 cells/well in 96 well white-walled, tissue culture-treated, clear-bottom plates (VWR). Compounds were added to the daughter plate, and cells plus compound were incubated at room temperature for 30 minutes in the dark.
(§2) Calcium flux was measured using the FlexStation 3 (Molecular Devices). To measure the antagonist dose-response, the EC80 of Acetylcholine was injected to the daughter plate using the automated compound transfer function of the Flex Station, and the increase in luminescence was measured over time. Antagonist activity was analyzed as a concentration dependent decrease in the EC80 acetylcholine response. Dose response curves were generated using Prism (GraphPad Software). The IC50 of the compounds was calculated from the dose response curve.

[2] = biological target: T1, human M1 receptor (Homo sapiens, UniProt P11229); assay: In vitro functional assay of muscarinic acetylcholine receptor activity (aequorin calcium flux, antagonist mode vs EC80 acetylcholine), M1
T1 sequence (P11229 1-460): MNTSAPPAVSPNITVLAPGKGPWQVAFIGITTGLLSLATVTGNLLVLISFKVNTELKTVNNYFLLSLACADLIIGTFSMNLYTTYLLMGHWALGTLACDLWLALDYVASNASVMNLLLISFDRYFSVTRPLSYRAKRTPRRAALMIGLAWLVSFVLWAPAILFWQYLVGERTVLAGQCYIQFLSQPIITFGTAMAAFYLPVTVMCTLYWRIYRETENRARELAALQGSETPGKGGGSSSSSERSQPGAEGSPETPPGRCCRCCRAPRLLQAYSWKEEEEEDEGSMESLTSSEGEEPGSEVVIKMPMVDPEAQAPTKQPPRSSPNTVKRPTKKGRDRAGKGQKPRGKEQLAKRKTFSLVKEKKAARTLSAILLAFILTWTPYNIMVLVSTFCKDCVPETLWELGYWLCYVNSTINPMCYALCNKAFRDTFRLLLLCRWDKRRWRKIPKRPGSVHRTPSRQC
Description: as §1, §2

[3] = biological target: T2, M2 (Homo sapiens, UniProt P08172); assay: In vitro functional assay of muscarinic acetylcholine receptor activity, M2; details: antagonist IC50 at M2; read-out: M2 IC50
T2 sequence (P08172 1-466): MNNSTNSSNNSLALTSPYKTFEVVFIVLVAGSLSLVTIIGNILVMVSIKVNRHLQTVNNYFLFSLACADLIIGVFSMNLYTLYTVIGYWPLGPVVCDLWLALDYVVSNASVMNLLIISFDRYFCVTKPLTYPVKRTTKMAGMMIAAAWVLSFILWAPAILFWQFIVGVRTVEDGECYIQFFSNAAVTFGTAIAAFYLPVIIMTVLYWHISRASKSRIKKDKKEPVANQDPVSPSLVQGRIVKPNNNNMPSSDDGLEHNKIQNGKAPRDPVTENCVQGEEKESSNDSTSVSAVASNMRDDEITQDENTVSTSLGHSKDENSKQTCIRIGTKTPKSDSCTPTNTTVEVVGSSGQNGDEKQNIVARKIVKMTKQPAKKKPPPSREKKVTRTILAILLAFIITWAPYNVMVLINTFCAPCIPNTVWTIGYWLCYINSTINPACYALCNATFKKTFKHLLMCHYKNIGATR
Description: [The procedure below names another target; the source lists this target under the same test.] as §1, §2

[4] = CHO-K1 cells stably expressing human M1 receptor with Aequorin, decrease in EC80 acetylcholine response, read-out: M1 IC50

M3, sequence (P20309 whole entry): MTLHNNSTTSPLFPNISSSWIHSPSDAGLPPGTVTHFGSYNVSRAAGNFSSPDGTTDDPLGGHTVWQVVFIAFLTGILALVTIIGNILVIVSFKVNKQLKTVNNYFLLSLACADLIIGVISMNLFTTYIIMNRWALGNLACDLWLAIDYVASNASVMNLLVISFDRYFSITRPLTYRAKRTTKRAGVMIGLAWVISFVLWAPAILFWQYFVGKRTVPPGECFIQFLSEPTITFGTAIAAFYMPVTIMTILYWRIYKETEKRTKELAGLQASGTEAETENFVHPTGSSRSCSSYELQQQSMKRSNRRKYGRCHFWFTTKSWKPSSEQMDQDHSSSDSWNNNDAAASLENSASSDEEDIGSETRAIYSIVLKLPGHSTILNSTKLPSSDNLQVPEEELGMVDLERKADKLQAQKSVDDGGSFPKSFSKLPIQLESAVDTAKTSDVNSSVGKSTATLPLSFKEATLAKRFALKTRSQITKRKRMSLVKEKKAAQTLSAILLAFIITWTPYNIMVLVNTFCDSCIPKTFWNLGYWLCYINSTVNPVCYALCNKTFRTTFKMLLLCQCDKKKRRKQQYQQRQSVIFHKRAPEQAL

Compound | IC50 [1] [nM] | IC50 [2, 4] [nM] | IC50 [3] [nM] | IC50 [2] [nM]
Cc1cc(F)cnc1N1C[C@H]2C[C@@H]1CN2C(=O)CCCc1cccc2ncccc12 (racemic) [Example 53, rac-1-((1R,4R)-5-(5-fluoro-3-methylpyridin-2-yl)-2,5-diazabicyclo[2.2.1]heptan-2-yl)-4-(quinolin-5-yl)butan-1-one] | > 10000 | 1000 to 10000 | 1000 to 10000 | 
O=C(CCCc1cccc2ncccc12)N1C[C@H]2C[C@@H]1CN2c1ccc(F)cn1 (racemic) [Example 54, rac-1-((1R,4R)-5-(5-fluoropyridin-2-yl)-2,5-diazabicyclo[2.2.1]heptan-2-yl)-4-(quinolin-5-yl)butan-1-one] | > 10000 | 100 to 1000 | 1000 to 10000 | 
O=C(COCc1cccc2ncccc12)N1C[C@H]2CC[C@@H](C1)N2c1ccc(F)cn1 [Example 1, 1-((1R,5S)-8-(5-fluoropyridin-2-yl)-3,8-diazabicyclo[3.2.1]octan-3-yl)-2-(quinolin-5-ylmethoxy)ethan-1-one] | > 10000 |  | 1000 to 10000 | < 100
O=C(CC1CN(c2cccc3ncccc23)C1)N1C[C@H]2CC[C@@H](C1)N2c1ccc(F)cn1 [Example 2, 1-((1R,5S)-8-(5-fluoropyridin-2-yl)-3,8-diazabicyclo[3.2.1]octan-3-yl)-2-(1-(quinolin-5-yl)azetidin-3-yl)ethan-1-one] | > 10000 | 1000 to 10000 | 1000 to 10000 | 
Cc1cc(F)cnc1N1CCN(C(=O)CCCc2cccc3ncccc23)[C@@H](C)C1 [Example 6, 1-[(2S)-4-(5-fluoro-3-methylpyridin-2-yl)-2-methylpiperazin-1-yl]-4-(quinolin-5-yl)butan-1-one] | 1000 to 10000 |  | 1000 to 10000 | 
Cc1cc(F)cnc1N1CCN(C(=O)CCCc2cccc3nc(N)sc23)[C@@H](C)C1 [Example 20, 4-(2-amino-1,3-benzothiazol-7-yl)-1-[(2S)-4-(5-fluoro-3-methylpyridin-2-yl)-2-methylpiperazin-1-yl]butan-1-one] | 1000 to 10000 |  | 1000 to 10000 | 
N#Cc1ccc(N2C3CCC2CN(C(=O)CCNCc2c(F)ccc4ncnn24)C3)nc1 [Example 41, 6-(3-{3-[({6-fluoro-[1,2,4]triazolo[1,5-a]pyridin-5-yl}methyl)amino]propanoyl}-3,8-diazabicyclo[3.2.1]octan-8-yl)pyridine-3-carbonitrile] |  |  |  | < 100
O=C(CCCc1cccc2ncccc12)N1CCN(c2ccc(F)cn2)CC1 [Example 51, 1-(4-(5-fluoropyridin-2-yl)piperazin-1-yl)-4-(quinolin-5-yl)butan-1-one] | > 10000 |  | 1000 to 10000 | 
CC1CN(c2ccc(F)cn2)CCN1C(=O)CCCc1cccc2ncccc12 (centres unmarked) [Example 58, 1-(4-(5-fluoropyridin-2-yl)-2-methylpiperazin-1-yl)-4-(quinolin-5-yl)butan-1-one] | 1000 to 10000 |  | 1000 to 10000 | 
Cc1cc(F)cnc1N1CCN(C(=O)CCCc2cccc3ncccc23)C(C)C1 (centres unmarked) [Example 59, 1-(4-(5-fluoro-3-methylpyridin-2-yl)-2-methylpiperazin-1-yl)-4-(quinolin-5-yl)butan-1-one] | 100 to 1000 |  | < 100 | 
CC1CN(C(=O)CCCc2cccc3ncccc23)CCN1c1ccc(F)cn1 (centres unmarked) [Example 61, 1-(4-(5-fluoropyridin-2-yl)-3-methylpiperazin-1-yl)-4-(quinolin-5-yl)butan-1-one] | 1000 to 10000 |  | 1000 to 10000 | 
Cc1cc(F)cnc1N1CCN(C(=O)CCCc2cccc3ncccc23)CC1C (centres unmarked) [Example 62, 1-(4-(5-fluoro-3-methylpyridin-2-yl)-3-methylpiperazin-1-yl)-4-(quinolin-5-yl)butan-1-one] | 1000 to 10000 |  | 100 to 1000 | 
Cc1cc(F)cnc1N1CCN(C(=O)CCCc2cccc3ncccc23)[C@H](C)C1 [Example 66, (R)-1-(4-(5-fluoro-3-methylpyridin-2-yl)-2-methylpiperazin-1-yl)-4-(quinolin-5-yl)butan-1-one] | 100 to 1000 |  | 100 to 1000 | 
C[C@@H]1CN(c2ncc(F)cc2Cl)CCN1C(=O)CCCc1cccc2ncccc12 [Example 80, (R)-1-(4-(3-chloro-5-fluoropyridin-2-yl)-2-methylpiperazin-1-yl)-4-(quinolin-5-yl)butan-1-one] | 1000 to 10000 |  | 1000 to 10000 | 
Cc1cc(F)cnc1N1CCN(C(=O)CCCc2cccc3ncoc23)[C@@H](C)C1 [Example 83, (S)-4-(benzo[d]oxazol-7-yl)-1-(4-(5-fluoro-3-methylpyridin-2-yl)-2-methylpiperazin-1-yl)butan-1-one] | 1000 to 10000 |  | 1000 to 10000 | 
N#Cc1cc(N2CCN(C(=O)CCS(=O)(=O)c3cccc4ncsc34)CC2)ccn1 [Example 100, 4-(4-(3-(benzo[d]thiazol-7-ylsulfonyl)propanoyl)piperazin-1-yl)picolinonitrile] | 1000 to 10000 |  | > 10000 | 
O=C(CCNCc1cccc2ncsc12)N1CCN(c2ccc(C(F)(F)F)cn2)CC1 [Example 119, 3-{[(1,3-benzothiazol-7-yl)methyl)amino}-1-{4-[5-(trifluoromethyl)pyridin-2-yl]piperazin-1-yl}propan-1-one] | > 10000 | 1000 to 10000 |  | 
CC1CN(C(=O)CCS(=O)(=O)c2cccc3ncsc23)CC(C)N1c1ccc(C#N)cn1 (centres unmarked) [Example 128, 6-{4-[3-(1,3-benzothiazole-7-sulfonyl)propanoyl]-2,6-dimethylpiperazin-1-yl}pyridine-3-carbonitrile] | 1000 to 10000 |  | 1000 to 10000 | 
CC1CN(c2ccc(C#N)cn2)CC(C)N1C(=O)CCS(=O)(=O)c1cccc2ncsc12 (centres unmarked) [Example 134, 6-{4-[3-(1,3-benzothiazole-7-sulfonyl)propanoyl]-3,5-dimethylpiperazin-1-yl}pyridine-3-carbonitrile] | > 10000 |  | > 10000 | 
Cc1ccc(N2C3CCC2CN(C(=O)CCOCc2cccn4ncnc24)C3)nn1 [Example 189, 1-[8-(6-methylpyridazin-3-yl)-3,8-diazabicyclo[3.2.1]octan-3-yl]-3-({[1,2,4]triazolo[1,5-a]pyridin-8-yl}methoxy)propan-1-one] |  |  |  | 100 to 1000
O=Cc1ccc(N2C3CCC2CN(C(=O)CCOCc2cccn4ncnc24)C3)nc1 [Example 190, 6-{3-[3-({[1,2,4]triazolo[1,5-a]pyridin-8-yl}methoxy)propanoyl]-3,8-diazabicyclo[3.2.1]octan-8-yl}pyridine-3-carbaldehyde] |  |  |  | < 100
N#Cc1ccc(N2C3CCC2CN(C(=O)CCN(Cc2cccc4ncnn24)C2CCC2)C3)nc1 [Example 191, 6-(3-{3-[cyclobutyl({[1,2,4]triazolo[1,5-a]pyridin-5-yl}methyl)amino]propanoyl}-3,8-diazabicyclo[3.2.1]octan-8-yl)pyridine-3-carbonitrile] |  | 1000 to 10000 |  | 
O=C([C@H]1C[C@H](Nc2cccc3ncccc23)C1)N1CC2CCC(C1)N2c1ccncc1 [Example 196, N-[(1r,3r)-3-[8-(pyridin-4-yl)-3,8-diazabicyclo[3.2.1]octane-3-carbonyl]cyclobutyl]quinolin-5-amine] |  | 1000 to 10000 |  | 
N#Cc1ccc(N2C3CCC2CN(C(=O)CCCc2cccn4ncnc24)C3)nc1 [Example 198, 6-[3-(4-{[1,2,4]triazolo[1,5-a]pyridin-8-yl}butanoyl)-3,8-diazabicyclo[3.2.1]octan-8-yl]pyridine-3-carbonitrile] |  |  |  | < 100
N#Cc1ccc(N2C3CCC2CN(C(=O)CCCc2cccc4ncnn24)C3)nc1 [Example 199, 6-[3-(4-{[1,2,4]triazolo[1,5-a]pyridin-5-yl}butanoyl)-3,8-diazabicyclo[3.2.1]octan-8-yl]pyridine-3-carbonitrile] |  |  |  | < 100
